Reference: patent US7479498B2, “Treatments for viral infections” (priority 1999, dated 2009)
Entries after “also recorded” stand apart in the source; their conditions may differ. Structures can show the parent of a compound that is named as a salt. Where two headings read alike, the source gives them in different places.

Experiments:
HIV = format: cell-based; conditions: standardized extract containing 1-10 μg/ml quercetin
From the text: The in vitro effect of calcium channel blockers on HIV infection both in HIV adapted cell lines (HUT/H9) as well as acutely infected peripheral blood lymphocytes were studied.

[1] = cited from earlier work; for plasma half-life: after oral primaquine; for time to peak (maximum) plasma concentration: oral
GSH production = conditions: cited from earlier work
P. falciparum = conditions: cited from earlier work
[2] = cited from earlier work
P. vivax = conditions: in vivo; cited from earlier work

For `O=c1c(O)c(-c2ccc(O)c(O)c2)oc2cc(O)cc(O)c12` [quercetin, 2-(3,4-Dihydroxyphenyl)-3,5,7-trihydroxy-4H-1-benzopyran-4-one], the “reduction of HIV activity” value (HIV) is listed as 5-20%, the “absorption in the jejunum” value ([1]; in vivo) is listed as 66% and the “increase of GSH production” value (GSH production) is listed as 50%.

In the case of `OC(c1cc(C(F)(F)F)nc2c(C(F)(F)F)cccc12)C1CCCCN1` (centres unmarked) [Mefloquine], the “half-life (elimination / urinary excretion)” value ([1]; in vivo) is given as 312 to 792 h and the “plasma level necessary for chemo-suppression” value (P. falciparum; in vivo) is given as 200 to 300 ng/mL.

In the case of `O=C1NC(=O)C(c2ccccc2)(c2ccccc2)N1` [phenytoin, 5,5-diphenyl-2,4-imidazolidinedione], the “solubility in water / aqueous mixtures” value [2] is given as “poorly soluble in aqueous mixtures; also recorded: water insoluble”.

For `O=C1NC(=O)C(c2ccccc2)(c2ccccc2)N1` [Phenytoin sodium, monosodium salt of 5,5-diphenyl hydantoinate], the “solubility in water / aqueous mixtures” value [2] is given as “readily soluble in water; also recorded: highly water-soluble”.

In the case of `COc1cc(NC(C)CCC(=O)O)c2ncccc2c1` (centres unmarked) [carboxyprimaquine], the peak serum concentration ([1]; after 14 daily doses of primaquine) is listed as 432 to 1240 ng/mL, the plasma half-life [1] is listed as 22 to 30 h and the “plasma concentration relative to parent compound” value ([1]; in vivo) is listed as “more than ten times greater”.

In the case of `COc1cc(NC(C)CCCN)c2ncccc2c1` (centres unmarked) [Primaquine], the plasma half-life [1] is given as 3 to 8 h, the peak serum concentration ([1]; oral primaquine) is given as 50 to 66 ng/mL and the “time to peak (maximum) plasma concentration” value (“time to peak” below) [1] is given as 1 to 2 h.

For `CCN(CC)CCCC(C)Nc1ccnc2cc(Cl)ccc12` (centres unmarked) [Chloroquine], the “apparent volume of distribution” value ([1]; in vivo) is listed as “about 13,000 L”, the “half-life (elimination / urinary excretion)” value ([1]; in vivo) is listed as 72 to 120 h and the plasma protein binding ([1]; in vivo) is listed as 50-65%. The “time to peak” value [1] was “about 3 hours”, the “therapeutically effective plasma concentration” value (P. falciparum; sensitive P. falciparum) was “approximately 30 μg/L” and the “therapeutically effective plasma concentration” value (P. vivax) was about 15 µg/L.

In the case of `C=C[C@H]1C[N@@]2CC[C@H]1C[C@H]2[C@H](O)c1ccnc2ccc(OC)cc12` [Quinine], the “cerebrospinal fluid concentration as share of plasma level” value ([1]; in vivo) is listed as “about 7%”, the “plasma concentration accompanied by adverse reactions of cinchonism” value ([1]; in vivo) is listed as “over 7 μg/mL” and the “red blood cell level as share of plasma level” value ([1]; in vivo) is listed as “about 20%”. For the same compound, the “share of drug metabolized in the liver” value ([1]; in vivo) was “Approximately 80%”, the “time to peak” value [1] was 1 to 3 h and the plasma level ([1]; standard oral doses, normal or mild infection) was “about 7 μg/mL”. The “mean plasma concentration effective to eliminate asexual parasites” value (P. vivax) was “over 5 μg/mL”.
